Our source for the IC50 values is US11084800B2 (Achillion Pharmaceuticals, Inc., priority 2017, dated 2021).

The IC50 is the concentration that gives 50% inhibition.

Bounds are passed on as bounds.

For the assay, the target named is Human Factor D (Homo sapiens (Human), UniProt P00746). Put plainly: Human Factor D Assay. It is filed as biochemical. Conditions: Table 6; Factor D 80 nM, substrate Z-L-Lys-SBz; read-out: IC50. The procedure: The assay of Example 10 was used to determine the IC50's of the compounds. Other standard factor D inhibition assays are also available.
Sequence of Human Factor D (P00746 26-253): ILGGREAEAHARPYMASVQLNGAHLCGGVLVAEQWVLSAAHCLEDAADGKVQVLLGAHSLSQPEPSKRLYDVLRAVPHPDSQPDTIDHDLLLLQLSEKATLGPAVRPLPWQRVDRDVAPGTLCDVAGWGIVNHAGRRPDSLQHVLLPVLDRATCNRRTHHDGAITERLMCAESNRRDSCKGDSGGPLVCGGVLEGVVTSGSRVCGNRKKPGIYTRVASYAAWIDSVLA
Human Factor D (purified from human serum, Complement Technology, Inc.) at 80 nM final concentration is incubated with test compound at various concentrations for 5 min at room temperature in 50 mM Tris, 1M NaCl, pH 7.5. A synthetic substrate Z-L-Lys-SBz and DTNB (Ellman's reagent) are added to final concentrations of 100 μM each. Absorbance at 405 nm (A405) is recorded at 30 second intervals for 30 min using a microplate spectrophotometer. IC50 values are calculated by nonlinear regression of complement Factor D reaction rates as a function of test compound concentration.
`CC(=O)c1nn(CC(=O)N2[C@H](C(=O)Nc3ccc(F)c(Br)n3)C[C@@]3(C)C[C@@H]23)c2c(C)cc(-c3cnc(C)nc3)cc12` [Compound 46, (1R,3S,5R)-2-(2-(3-acetyl-7-methyl-5-(2-methylpyrimidin-5-yl)-1H-indazol-1-yl)acetyl)-N-(6-bromo-5-fluoropyridin-2-yl)-5-methyl-2-azabicyclo[3.1.0]hexane-3-carboxamide]: the IC50 is below 1000 nM.

Turning to `CCc1cc(-c2cnc(C)nc2)cc2c(C(C)=O)nn(CC(=O)N3[C@H](C(=O)Nc4nc(Br)ccc4C)C[C@@]4(C)C[C@@H]34)c12` [Compound 47, (1R,3S,5R)-2-(2-(3-Acetyl-7-ethyl-5-(2-methylpyrimidin-5-yl)-1H-indazol-1-yl)acetyl)-N-(6-bromo-3-methylpyridin-2-yl)-5-methyl-2-azabicyclo[3.1.0]hexane-3-carboxamide], the IC50 was below 1000 nM.

As for `COCc1ccc(Br)c(NC(=O)[C@@H]2CC3(CNC(=O)[C@@H](NC(=O)OC)C(C)C)CC3N2C(=O)Cn2nc(C(C)=O)c3cc(-c4cnc(C)nc4)ccc32)n1` (stereo partly drawn) [Compound 48, methyl ((2S)-1-((((3S)-2-(2-(3-acetyl-5-(2-methylpyrimidin-5-yl)-1H-indazol-1-yl)acetyl)-3-((3-bromo-6-(methoxymethyl)pyridin-2-yl)carbamoyl)-2-azabicyclo[3.1.0]hexan-5-yl)methyl)amino)-3-methyl-1-oxobutan-2-yl)carbamate], the IC50 is above 10000 nM.

Regarding `CC(=O)c1nn(CC(=O)N2[C@H](C(=O)Nc3nc(Br)ccc3C)C[C@@]3(C)C[C@@H]23)c2c(C)cc(-c3cnc(C)[n+]([O-])c3)cc12` [Compound 50, 5-(3-Acetyl-1-(2-((1R,3S,5R)-3-(6-bromo-3-methylpyridin-2-ylcarbamoyl)-5-methyl-2-azabicyclo[3.1.0]hexan-2-yl)-2-oxoethyl)-7-methyl-1H-indazol-5-yl)-2-methylpyrimidine 1-oxide], the IC50 was below 1000 nM.

With `Cc1ncc(-c2ccc3c(c2)c(C(N)=O)nn3CC(=O)N2C[C@H]3C[C@H]3[C@H]2C(=O)Nc2nc(Br)ccc2C)cn1` [Compound 56, 1-(2-((1R,2S,5S)-2-((6-Bromo-3-methylpyridin-2-yl)carbamoyl)-3-azabicyclo[3.1.0]hexan-3-yl)-2-oxoethyl)-5-(2-methylpyrimidin-5-yl)-1H-indazole-3-carboxamide], the IC50 is below 1000 nM.

`Cc1ncc(-c2cc(C)c3c(c2)c(C(N)=O)nn3CC(=O)N2[C@H](C(=O)Nc3nc(Br)ccc3C)C[C@@]3(C)C[C@@H]23)cn1` [Compound 57, 1-(2-((1R,3S,5R)-3-((6-Bromo-3-methylpyridin-2-yl)carbamoyl)-5-methyl-2-azabicyclo[3.1.0]hexan-2-yl)-2-oxoethyl)-7-methyl-5-(2-methylpyrimidin-5-yl)-1H-indazole-3-carboxamide]: the IC50 was below 1000 nM.

In the case of `Cc1ncc(-c2cc(C)c3c(c2)c(C(N)=O)nn3CC(=O)N2[C@H](C(=O)Nc3cccc(Br)n3)C[C@@]3(C)C[C@@H]23)cn1` [Compound 58, 1-(2-((1R,3S,5R)-3-((6-Bromopyridin-2-yl)carbamoyl)-5-methyl-2-azabicyclo[3.1.0]hexan-2-yl)-2-oxoethyl)-7-methyl-5-(2-methylpyrimidin-5-yl)-1H-indazole-3-carboxamide], the 50% inhibitory concentration (IC50) is below 1000 nM.

With `CC(=O)c1nn(CC(=O)N2C[C@H](F)C[C@H]2C(=O)Nc2nc(Br)ccc2CC(=O)O)c2ccc(-c3cnc(C)nc3)cc12` [Compound 62, 2-(2-((2S,4R)-1-(2-(3-Acetyl-5-(2-methylpyrimidin-5-yl)-1H-indazol-1-yl)acetyl)-4-fluoropyrrolidine-2-carboxamido)-6-bromopyridin-3-yl)acetic Acid], the IC50 was below 1000 nM.

Take `CC(=O)c1nn(CC(=O)N2[C@H](C(=O)Nc3nc(Br)ccc3C)C[C@@]3(C)C[C@@H]23)c2ccc(-c3cnc(C)[n+]([O-])c3)cc12` [Compound 64, 5-(3-acetyl-1-(2-((1R,3S,5R)-3-((6-bromo-3-methylpyridin-2-yl)carbamoyl)-5-methyl-2-azabicyclo[3.1.0]hexan-2-yl)-2-oxoethyl)-1H-indazol-5-yl)-2-methylpyrimidine 1-oxide]: the IC50 was below 1000 nM.

On to `CC(=O)c1nn(CC(=O)N2[C@H](C(=O)Nc3nc(Br)ccc3C)C[C@@]3(CO)C[C@@H]23)c2ccc(-c3cnc(C)nc3)cc12` [Compound 65, (1R,3S,5S)-2-(2-(3-acetyl-5-(2-methylpyrimidin-5-yl)-1H-indazol-1-yl)acetyl)-N-(6-bromo-3-methylpyridin-2-yl)-5-(hydroxymethyl)-2-azabicyclo[3.1.0]hexane-3-carboxamide], for which the half-inhibitory concentration (IC50) is below 1000 nM.

Regarding `CC(=O)c1nn(CC(=O)N2C[C@@](F)(CF)C[C@H]2C(=O)Nc2nc(Br)ccc2C)c2c(C)cc(-c3cnc(C)nc3)cc12` [Compound 66, (2S,4R)-1-(2-(3-Acetyl-7-methyl-5-(2-methylpyrimidin-5-yl)-1H-indazol-1-yl)acetyl)-N-(6-bromo-3-methylpyridin-2-yl)-4-fluoro-4-(fluoromethyl)pyrrolidine-2-carboxamide], the half-maximal inhibitory concentration (IC50) is below 1000 nM.

With `CC(=O)c1nn(CC(=O)N2[C@H](C(=O)Nc3nc(Br)ccc3C)C[C@@]3(CN4CC5(CCC5)C4)C[C@@H]23)c2ccc(-c3cnc(C)nc3)cc12` [Compound 67, (1R,3S,5R)-5-(2-azaspiro[3.3]heptan-2-ylmethyl)-2-(2-(3-acetyl-5-(2-methylpyrimidin-5-yl)-1H-indazol-1-yl)acetyl)-N-(6-bromo-3-methylpyridin-2-yl)-2-azabicyclo[3.1.0]hexane-3-carboxamide], the IC50 is below 1000 nM.

Consider `CC(=O)c1nn(CC(=O)N2[C@H]3C[C@@]3(CN3CC4(CCC4)C3)C[C@H]2C(=O)Nc2nc(Br)ccc2C)c2ccc(-c3cnc(C)nc3)cc12` [Compound 68], for which the IC50 is below 1000 nM.

In the case of `CC(=O)c1nn(CC(=O)N2[C@H](C(=O)Nc3nc(Br)ccc3C)C[C@@]3(CN4CCN(C)CC4)C[C@@H]23)c2c(C)cc(-c3cnc(C)nc3)cc12` [Compound 69, (1R,3S,5R)-2-(2-(3-Acetyl-7-methyl-5-(2-methylpyrimidin-5-yl)-1H-indazol-1-yl)acetyl)-N-(6-bromo-3-methylpyridin-2-yl)-5-((4-methylpiperazin-1-yl)methyl)-2-azabicyclo[3.1.0]hexane-3-carboxamide], the IC50 was below 1000 nM.

Consider `C=CCOCc1ccc(Br)nc1NC(=O)[C@@H]1C[C@@]2(CN(C)CC=C)C[C@H]2N1C(=O)Cn1nc(C(C)=O)c2cc(-c3cnc(C)nc3)ccc21` [Compound 70, (1R,3S,5R)-2-(2-(3-Acetyl-5-(2-methylpyrimidin-5-yl)-1H-indazol-1-yl)acetyl)-5-((allyl(methyl)amino)methyl)-N-(3-((allyloxy)methyl)-6-bromopyridin-2-yl)-2-azabicyclo[3.1.0]hexane-3-carboxamide], for which the IC50 is below 1000 nM.

Regarding `Cc1ncc(-c2ccc3c(c2)c(C(C)O)nn3CC(=O)N2C[C@H]3C[C@H]3[C@H]2C(=O)Nc2nc(Br)ccc2C)cn1` (stereo partly drawn) [Compound 71, (1R,2S,5S)-N-(6-bromo-3-methylpyridin-2-yl)-3-(2-(3-(1-hydroxyethyl)-5-(2-methylpyrimidin-5-yl)-1H-indazol-1-yl)acetyl)-3-azabicyclo[3.1.0]hexane-2-carboxamide], the IC50 fell in the range of 1000 to 10000 nM.
